Test results from ChEMBL document CHEMBL1201862, “PubChem BioAssay data set” (2004).
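How tested: cells in 96-well plates exposed to compound for 48 hours at five concentrations. GI50 is the concentration that inhibits growth by half.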 Active and inactive are the calls of the source. Cut-off read from the data, not from the text of the source: active = GI50 up to about 1.1 µM and inactive = higher.

What was measured:
Assay in all cases: NCI-60 cell line screen, 48 h
[1] = system: 786-0
[2] = system: ACHN
[3] = system: BT-549
[4] = system: CAKI-1
[5] = system: HOP-62
[6] = system: Hs-578T
[7] = system: K562
[8] = system: LOX IMVI
[9] = system: MDA-N
[10] = system: Malme-3M
[11] = system: NCI-H226
[12] = system: NCI-H460
[13] = system: NCI-H522
[14] = system: RXF 393
[15] = system: SF-268
[16] = system: SK-MEL-5
[17] = system: SNB-19
[18] = system: UACC-62
[19] = system: SF-539

Measured: GI50

O=C1c2ccccc2C(=O)c2c(Nc3ccc4c5c(cccc35)C(=O)c3ccccc3-4)cccc21
inactive: [1] > 100 µM | [2] > 100 µM | [3] > 100 µM | [4] > 100 µM | [5] > 100 µM | [6] > 100 µM | [7] > 100 µM | [8] > 100 µM | [9] > 100 µM | [10] > 100 µM | [11] > 100 µM | [12] > 100 µM | [13] > 100 µM | [14] > 100 µM | [15] > 100 µM | [16] > 100 µM | [17] > 100 µM | [18] > 100 µM

Cc1ncc([N+](=O)[O-])n1CCN=[N+]=[N-]
inactive: [1] > 100 µM | [2] > 100 µM | [3] > 100 µM | [4] > 100 µM | [5] > 100 µM | [6] > 100 µM | [7] > 100 µM | [9] > 100 µM | [10] > 100 µM | [11] > 100 µM | [12] > 100 µM | [13] > 100 µM | [14] > 100 µM | [15] > 100 µM | [19] > 100 µM | [16] > 100 µM | [17] > 100 µM | [18] > 100 µM

O=[N+]([O-])c1ccc(N2N=C(c3ccc4ccccc4c3O)CC2c2ccc(Cl)cc2)c([N+](=O)[O-])c1 (configuration not stated)
inactive: [1] 44 µM | [2] 37.2 µM | [3] > 100 µM | [4] > 100 µM | [5] 41.2 µM | [6] 37.9 µM | [7] 14.5 µM | [9] 16.7 µM | [10] 21.5 µM | [11] 50.8 µM | [12] 25.4 µM | [13] 22.1 µM | [14] 28.6 µM | [15] 45.7 µM | [19] 32.3 µM | [16] 22.2 µM | [18] > 100 µM

COc1cc(C)cc2c(-c3c(O)cc(O)c4c3C[C@H](C)N[C@H]4C)cc(-c3cc(-c4c(O)cc(O)c5c4C[C@H](C)N[C@H]5C)c4cc(C)cc(OC)c4c3O)c(O)c12
inactive: [1] 26.9 µM | [2] > 100 µM | [3] > 100 µM | [4] > 100 µM | [5] 72.3 µM | [6] > 100 µM | [7] > 100 µM | [9] 52 µM | [10] > 100 µM | [11] > 100 µM | [12] 75.3 µM | [13] > 100 µM | [14] > 100 µM | [15] > 100 µM | [19] > 100 µM | [16] > 100 µM | [17] > 100 µM | [18] > 100 µM

O=C1/C(=C/c2ccccc2)N=C(c2ccccc2)N1n1c(-c2ccccc2)nc2ccccc2c1=O
inactive: [1] > 100 µM | [2] 89.1 µM | [3] 31.6 µM | [5] > 100 µM | [6] 35.2 µM | [7] 61.7 µM | [8] 35.6 µM | [9] 54.8 µM | [10] > 100 µM | [11] 64 µM | [12] 58.9 µM | [13] 46.6 µM | [14] 86.5 µM | [15] 64.6 µM | [19] 83 µM | [16] 38 µM | [17] 52.8 µM | [18] 31 µM

CCCCCCCCCCCCCCCCOP(=O)(O)OP(=O)(O)OCC1OC(n2cnc3c(N)ncnc32)C(O)C1O (configuration not stated)
inactive: [1] 80.5 µM | [2] > 100 µM | [3] 18.7 µM | [4] 99.3 µM | [5] 30.5 µM | [6] 43.8 µM | [7] 46.8 µM | [8] > 100 µM | [9] 75.9 µM | [10] 43.9 µM | [11] 54.6 µM | [12] 36.1 µM | [13] 19.9 µM | [14] 98.4 µM | [15] 73.8 µM | [16] > 100 µM | [17] 34 µM | [18] 58.7 µM
